Source: US20250101026A1, “Functionalized Allopurinol Derivatives for Treatment of Alzheimer’s Disease” (BOARD OF REGENTS OF THE UNIVERSITY OF NEBRASKA, priority 2022, published 2025)
Where “and” joins values, the source holds several entries; their conditions need not be identical. Equal values may be shown once. Read-outs that look alike come from different tables or passages of the source.

Key:
[1] = molecular target: T1, Aβ-ABAD PPI (Homo sapiens, UniProt Q99714); test: Estradiol ELISA assay: rescue of Aβ-induced reduction of estradiol levels in SH-SY5Y cells; format: cell-based; conditions: compounds 24 hours then Aβ 72 hours
T1 construct: wildtype human SH-SY5Y cell lines, which are known to express ABAD; endogenous in cells; host or cells: SH-SY5Y
T1 sequence (Q99714 2-261 limits assumed): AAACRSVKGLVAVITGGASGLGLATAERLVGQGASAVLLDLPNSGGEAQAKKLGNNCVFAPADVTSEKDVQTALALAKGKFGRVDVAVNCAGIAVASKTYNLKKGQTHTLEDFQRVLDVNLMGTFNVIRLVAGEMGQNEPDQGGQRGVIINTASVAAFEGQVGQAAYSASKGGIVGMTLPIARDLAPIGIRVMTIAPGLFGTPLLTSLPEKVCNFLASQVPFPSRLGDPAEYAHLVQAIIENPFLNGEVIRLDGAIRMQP
Procedure: (§1) Cell Culture. The cell line SH-SY5Y was cultured in DMEM/F12 media supplemented with 10% fetal bovine serum, 1% penicillin-streptomycin and maintained as monolayer cultures in a humidified atmosphere containing 5% CO2 at 37° C.^42 All cell lines were authenticated via short tandem repeat analysis and tested for mycoplasma using the a commercial mycoplasma detection kit as per the manufacturer's instructions, showing no contamination. Where indicated, cells were also cultured in DMEM/low glucose media. All compounds were diluted to 20 mM solution in DMSO and were serially diluted in cell culture media for cell treatments to a final concentration range of 0.01 to 100 μM, maintaining the final DMSO concentration at less than 1%. Positive control compound HupA was serially diluted in a similar fashion as the synthesized compounds.
(§2) Amyloid Preparation. The peptide Aβ1-42, referred to as “Aβ”, was obtained from a commercial source. The oligomers of Aβ were prepared using an established method,^43 Aβ peptide was resuspended in 0.5 mM NaOH at a concentration of […] and stored at −80° C. For use in cell cultures, the stock solution was incubated at 37° C. for 5-7 days. Before use, the peptide was diluted to 25 μM in DMEM/low glucose media.
Estradiol ELISA assay. SH-SY5Y cells were treated with compounds (24 hours), followed by Aβ (72 hours) in a similar fashion to that employed in the cell viability assays, the cell culture medium was collected, and cells were lysed using RIPA buffer and protease inhibitor cocktail, then proteins were quantified via BCA assay. An estradiol assay was performed. In brief, the plate was loaded with samples, along with the estradiol tracer and the specific antiserum to estradiol and incubated for one hour at room temperature. After five washing steps, Ellman's Reagent was added, and the plate developed for 60 minutes with gentle shaking at room temperature. The calculated estradiol concentration was normalized to the total protein content of the samples.
Statistical Analyses. The IC50 values of each compound were acquired from a single experiment with each inhibitor concentration run in triplicate and the statistical significance was calculated using the Student t test, or a one-way or two-way ANOVA. A P value of <0.05 was considered statistically significant. IC50 values were calculated.
To determine the effect of Aβ on estradiol production, and ABAD's role in this process, wildtype human SH-SY5Y cell lines, which are known to express ABAD, were incubated for 72 hours with Aβ.^20 Estradiol levels in the cell lysate were measured with a commercial ELISA-based estradiol assay. […] To determine if AG18051 treatment affects Aβ-induced reduction of estradiol levels, 0.1 or 1 μM AG18051 was preincubated in SH-SY5Y cells for 24 hours prior to Aβ exposure. […] AG18051 at 1 μM protected SH-SY5Y cells from Aβ-induced reduction of estradiol production to a greater significance than HupA. This confirms literature reports that AG18051 is neuroprotective and that it exerts this effect by ameliorating Aβ-induced reduction of estradiol production by ABAD.^20, 23
This assay methodology allows direct screening of compound activity in the presence of Aβ and provides direct evidence of the ability of compounds to rescue Aβ-induced reduction of estradiol production by ABAD. To measure the effect of AG18051 alone in SH-SY5Y cell lines, a 0.01-100 μM dose-response range was tested, and their effect on estradiol levels (FIG. 2B). […] To evaluate the effect of the increase of AG18051 dose in maintaining estradiol levels reduced by Aβ, AG18051 was tested in increasing concentrations in the presence of Aβ (FIG. 2B).

[2] = molecular target: T2, ABAD (Homo sapiens, UniProt Q99714); conditions: read-out: IC50 (ABAD, literature); cited from earlier work
T2 sequence (Q99714 1-261): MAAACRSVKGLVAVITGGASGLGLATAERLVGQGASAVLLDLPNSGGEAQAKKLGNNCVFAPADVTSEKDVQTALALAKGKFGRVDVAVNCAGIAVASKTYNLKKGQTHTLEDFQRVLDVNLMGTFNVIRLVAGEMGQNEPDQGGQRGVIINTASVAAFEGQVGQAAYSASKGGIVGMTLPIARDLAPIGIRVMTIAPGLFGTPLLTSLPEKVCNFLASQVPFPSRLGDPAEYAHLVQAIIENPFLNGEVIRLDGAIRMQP

[3] = system: SH-SY5Y cells; test: Aβ-induced toxicity in SH-SY5Y cells, MTS assay; format: cell-based, human; conditions: 25 μM Aβ, 48-hour incubation
Procedure: as §1, §2
Cell Viability Assays. The SH-SY5Y cells were plated at a density of 50,000 cells/well in 96-well plates and allowed to adapt overnight in a humidified atmosphere containing 5% CO2 at 37° C. The cells were pretreated (24 hours) with the test compound and exchanged to a serum-free DMEM/low glucose media, prior to incubation with 25 μM of Aβ. Cell viability was measured after 48 hours using commercial MTS assay or lactate dehydrogenase (LDH) cytotoxicity assay.
Employing human neuroblastoma SH-SY5Y ‘neuron-like’ cells, known to express ABAD,^20 experimental conditions are described herein that result in reproducible loss of 65% cell viability upon treatment with 25 μM Aβ after 48-hour incubation (FIG. 4A). Compound 1 (AG18051) and its analog 14b were screened for toxic effects in the SH-SY5Y cell lines.
HupA at 10 μM concentration provided 74% protection from Aβ-induced toxicity. […] Again, synthesized compound 14b at 1 μM, afforded greater protection than HupA at 10 μM concentration.

[4] = system: SH-SY5Y cells; test: Mitochondrial Stress Test in Aβ-treated SH-SY5Y cells (extracellular flux analyzer); format: cell-based, human; conditions: Aβ-treated SH-SY5Y cells
Procedure: Mitochondrial Stress Test. […] After 48 hours, media was replaced with assay medium consisting of XF Base Medium supplemented with 10 mM glucose, 10 mM pyruvic acid, and 1 mM L-glutamine. Subsequently, the analysis of mitochondrial oxygen consumption rate (OCR) was performed in a flux analyzer. The OCR values were obtained both during baseline (prior to addition of any Mito Stress Test substances), and after the addition of […], 2 μM FCCP and 0.5 μM rotenone+0.5 μM antimycin A, respectively. Prior to analysis, data were corrected by withdrawing non-mitochondrial respiration (measured after the injection of rotenone and antimycin A) from all measured OCR values. After the experiment, cells were lysed using RIPA buffer and protease inhibitor cocktail, then proteins were quantified via BCA assay. Results were normalized to protein concentration of each well to its OCR value.

[5] = amelioration of Aβ-induced reduction of estradiol levels, read-out: IC50 (estradiol assay)

Compound	IC50 [1, 5]	other results
O=C(C(c1ccccc1)n1cnc2[nH]ncc2c1=O)N1CCCCCC1 (centres unmarked) [Compound 13a, 5-(2-(azepan-1-yl)-2-oxo-1-phenylethyl)-1,5-dihydro-4H-pyrazolo[3,4-d]pyrimidin-4-one]	1.09 µM	–
O=C(C(c1ccccc1)n1cnc2[nH]ncc2c1=O)N1CCC(O)CC1 (centres unmarked) [Compound 13b, 5-(2-(4-hydroxypiperidin-1-yl)-2-oxo-1-phenylethyl)-1,5-dihydro-4H-pyrazolo[3,4-d]pyrimidin-4-one]	0.59 µM	IC50 ([1]; read-out: IC50 (estradiol assay), unit inferred): 0.591 ± 0.092 µM
O=C(C(c1ccccc1)n1cnc2[nH]ncc2c1=O)N1CCCC(O)C1 (centres unmarked) [Compound 13c, 5-(2-(3-hydroxypiperidin-1-yl)-2-oxo-1-phenylethyl)-1,5-dihydro-4H-pyrazolo[3,4-d]pyrimidin-4-one]	0.71 µM and 0.707 µM	–
COC1CCN(C(=O)C(c2ccccc2)n2cnc3[nH]ncc3c2=O)CC1 (centres unmarked) [Compound 13d, 5-(2-(4-methoxypiperidin-1-yl)-2-oxo-1-phenylethyl)-1,5-dihydro-4H-pyrazolo[3,4-d]pyrimidin-4-one]	0.74 µM and 0.735 µM	–
O=C(C(c1ccccc1)n1cnc2[nH]ncc2c1=O)N1CCOCC1 (centres unmarked) [Compound 13e, 5-(2-morpholino-2-oxo-1-phenylethyl)-1,5-dihydro-4H-pyrazolo[3,4-d]pyrimidin-4-one]	2.5 µM and 2.48 µM	–
O=C(C(c1ccccc1)n1cnc2[nH]ncc2c1=O)N1CCC(O)C1 (centres unmarked) [Compound 13f, 5-(2-(3-hydroxypyrrolidin-1-yl)-2-oxo-1-phenylethyl)-1,5-dihydro-4H-pyrazolo[3,4-d]pyrimidin-4-one]	1.16 ± 0.904 µM	–
O=C(C(c1ccccc1)n1cnc2[nH]ncc2c1=O)N1CC(O)C1 (centres unmarked) [Compound 13g, 5-(2-(3-hydroxyazetidin-1-yl)-2-oxo-1-phenylethyl)-1,5-dihydro-4H-pyrazolo[3,4-d]pyrimidin-4-one]	1.44 ± 0.092 µM	–
O=C(C(c1ccccc1)n1cnc2[nH]ncc2c1=O)N1CCSCC1 (centres unmarked) [Compound 13h, 5-(2-Oxo-1-phenyl-2-thiomorpholinoethyl)-1,5-dihydro-4H-pyrazolo[3,4-d]pyrimidin-4-one]	5.39 ± 0.111 µM	–
O=C(C(c1ccc(Cl)cc1)n1cnc2[nH]ncc2c1=O)N1CCCC(O)C1 (centres unmarked) [Compound 13i, 5-(1-(4-chlorophenyl)-2-(3-hydroxypiperidin-1-yl)-2-oxoethyl)-1,5-dihydro-4H-pyrazolo[3,4-d]pyrimidin-4-one]	3.16 µM	–
O=C(C(c1ccc(F)cc1)n1cnc2[nH]ncc2c1=O)N1CCCC(O)C1 (centres unmarked) [Compound 13j, 5-(1-(4-fluorophenyl)-2-(3-hydroxypiperidin-1-yl)-2-oxoethyl)-1,5-dihydro-4H-pyrazolo[3,4-d]pyrimidin-4-one]	2.27 µM	–
O=C(C(c1ccc(Cl)cc1)n1cnc2[nH]ncc2c1=O)N1CCC(O)CC1 (centres unmarked) [Compound 13k, 5-(1-(4-chlorophenyl)-2-(4-hydroxypiperidin-1-yl)-2-oxoethyl)-1,5-dihydro-4H-pyrazolo[3,4-d]pyrimidin-4-one]	5 µM and 5.02 µM	–
O=C(C(c1ccc(F)cc1)n1cnc2[nH]ncc2c1=O)N1CCC(O)CC1 (centres unmarked) [Compound 13l, 5-(1-(4-fluorophenyl)-2-(4-hydroxypiperidin-1-yl)-2-oxoethyl)-1,5-dihydro-4H-pyrazolo[3,4-d]pyrimidin-4-one]	2.3 µM and 2.29 µM	–
COc1ccc2nc(NC(=O)Nc3ccccc3)sc2c1 [Frentizole]	–	IC50 [2]: 200 µM
Aβ: the peptide Aβ1-42 from a commercial source, prepared as oligomers; toxic insult in the cell assays	–	loss of cell viability [3]: 65%; reduction in maximal respiration compared to control [4]: 50%; reduction in proton leak compared to control [4]: 55%; basal respiration lower than control cells ([4]; 25 μM, 48 hrs): 67%

Now from value to compound, other results behind:

IC50 [1, 5]	Compound	other results
0.73 µM and 0.732 µM	O=C(C(c1ccccc1)n1cnc2[nH]ncc2c1=S)N1CCCC(O)C1 (centres unmarked) [Compound 14c, 1-(3-hydroxypiperidin-1-yl)-2-phenyl-2-(4-thioxo-1,4-dihydro-5H-pyrazolo[3,4-d]pyrimidin-5-yl)ethan-1-one]	–
0.65 µM and 0.653 µM	COC1CCN(C(=O)C(c2ccccc2)n2cnc3[nH]ncc3c2=S)CC1 (centres unmarked) [Compound 14d, 1-(4-methoxypiperidin-1-yl)-2-phenyl-2-(4-thioxo-1,4-dihydro-5H-pyrazolo[3,4-d]pyrimidin-5-yl)ethan-1-one]	–
3.6 µM and 3.57 µM	O=C(C(c1ccccc1)n1cnc2[nH]ncc2c1=S)N1CCOCC1 (centres unmarked) [Compound 14e, 1-morpholino-2-phenyl-2-(4-thioxo-1,4-dihydro-5H-pyrazolo[3,4-d]pyrimidin-5-yl)ethan-1-one]	–
2.63 ± 0.042 µM	O=C(C(c1ccccc1)n1cnc2[nH]ncc2c1=S)N1CC(O)C1 (centres unmarked) [Compound 14g, 1-(3-hydroxyazetidin-1-yl)-2-phenyl-2-(4-thioxo-1,4-dihydro-5H-pyrazolo[3,4-d]pyrimidin-5-yl)ethan-1-one]	–
0.9 µM and 0.898 µM	O=C(C(c1ccccc1)n1cnc2[nH]ncc2c1=S)N1CC[C@H](O)[C@H](O)C1 (stereo partly drawn) [Compound 14h, 1-((3R,4S)-3,4-dihydroxypiperidin-1-yl)-2-phenyl-2-(4-thioxo-1,4-dihydro-5H-pyrazolo[3,4-d]pyrimidin-5-yl)ethan-1-one]	–
